Activity calls are given as the source filed them. The rule behind the calls is not given here.
System: CCRIS mutagenicity, Ames/micronucleus/aberration tests
Assay: CCRIS mutagenicity studies

CC(=O)Nc1ccc2c(c1)Cc1ccccc1-2
mutagenic call (Test System: AMES SALMONELLA TYPHIMURIUM, Strain/Indicator: TA1537, Metabolic Activation: NONE, Method: STANDARD PLATE): inactive; negative
mutagenic call (Test System: AMES SALMONELLA TYPHIMURIUM, Strain/Indicator: TA1537, Metabolic Activation: RAT, LIVER, S-9, AROCLOR 1254, Method: SPIRAL ASSAY): inactive; negative
mutagenic call (Test System: AMES SALMONELLA TYPHIMURIUM, Strain/Indicator: TA1537, Metabolic Activation: RAT, LIVER, S-9, PHENOBARBITAL, Method: STANDARD PLATE): active; positive
mutagenic call (Test System: AMES SALMONELLA TYPHIMURIUM, Strain/Indicator: TA1538, Metabolic Activation: NONE, Method: STANDARD PLATE): inactive; negative
mutagenic call (Test System: AMES SALMONELLA TYPHIMURIUM, Strain/Indicator: TA1538, Metabolic Activation: RAT, LIVER, CYTOSOL, 2-ACETYLAMINOFLUORENE, Method: STANDARD PLATE): active; positive
mutagenic call (Test System: AMES SALMONELLA TYPHIMURIUM, Strain/Indicator: TA1538, Metabolic Activation: RAT, LIVER, CYTOSOL, AROCLOR 1254, Method: STANDARD PLATE): active; positive
mutagenic call (Test System: AMES SALMONELLA TYPHIMURIUM, Strain/Indicator: TA1538, Metabolic Activation: RAT, LIVER, CYTOSOL, Method: STANDARD PLATE): active; positive
mutagenic call (Test System: AMES SALMONELLA TYPHIMURIUM, Strain/Indicator: TA1538, Metabolic Activation: RAT, LIVER, MICROSOMES, 2-ACETYLAMINOFLUORENE, Method: STANDARD PLATE): active; positive
mutagenic call (Test System: AMES SALMONELLA TYPHIMURIUM, Strain/Indicator: TA1538, Metabolic Activation: RAT, LIVER, MICROSOMES, AROCLOR 1254, Method: STANDARD PLATE): active; positive
mutagenic call (Test System: AMES SALMONELLA TYPHIMURIUM, Strain/Indicator: TA1538, Metabolic Activation: RAT, LIVER, MICROSOMES, Method: STANDARD PLATE): active; positive
mutagenic call (Test System: AMES SALMONELLA TYPHIMURIUM, Strain/Indicator: TA1538, Metabolic Activation: RAT, LIVER, S-9, AROCLOR 1254, Method: STANDARD PLATE): active; positive
mutagenic call (Test System: AMES SALMONELLA TYPHIMURIUM, Strain/Indicator: TA1538, Metabolic Activation: RAT, LIVER, S-9, KC500 OR PHENOBARBITAL, Method: LIQUID SUSPENSION): active; positive
mutagenic call (Test System: AMES SALMONELLA TYPHIMURIUM, Strain/Indicator: TA1538, Metabolic Activation: RAT, LIVER, S-9, PHENOBARBITAL, Method: STANDARD PLATE): active; positive
mutagenic call (Test System: AMES SALMONELLA TYPHIMURIUM, Strain/Indicator: YG1024, Metabolic Activation: HUMAN, HEPATOMA CELLS, BENZO[A]ANTHRACENE, Method: PREINCUBATION): active; positive
mutagenic call (Test System: AMES SALMONELLA TYPHIMURIUM, Strain/Indicator: YG1024, Metabolic Activation: HUMAN, HEPATOMA CELLS, Method: PREINCUBATION): active; positive
mutagenic call (Test System: AMES SALMONELLA TYPHIMURIUM, Strain/Indicator: YG1024, Metabolic Activation: RAT, LIVER, S-9, AROCLOR 1254, Method: PREINCUBATION): active; positive
mutagenic call (Test System: AMES SALMONELLA TYPHIMURIUM, Strain/Indicator: YG1024, Metabolic Activation: RAT, LIVER, S-9, Method: PREINCUBATION): active; positive
mutagenic call (Test System: CHINESE HAMSTER OVARY, Strain/Indicator: AS52/6-THIOGUANINE, Metabolic Activation: NONE): inactive; negative
mutagenic call (Test System: CHINESE HAMSTER OVARY, Strain/Indicator: AS52/6-THIOGUANINE, Metabolic Activation: RAT LIVER S-9, 2-ACETYLAMINOFLUORENE): active; positive
mutagenic call (Test System: CHINESE HAMSTER OVARY, Strain/Indicator: CHO-K1-BH4 (HGPRT), Metabolic Activation: RAT, LIVER, S-9, AROCLOR, Method: SUSPENSION/PLATE): active; positive
mutagenic call (Test System: CHINESE HAMSTER V-79, Strain/Indicator: V-79/6-THIOGUANINE, Metabolic Activation: HAMSTER, LIVER, S-9, AROCLOR 1254, Method: SUSPENSION/PLATE): inactive; negative
mutagenic call (Test System: CHINESE HAMSTER V-79, Strain/Indicator: V-79/6-THIOGUANINE, Metabolic Activation: NONE, Method: SUSPENSION/PLATE): inactive; negative
mutagenic call (Test System: CHINESE HAMSTER V-79, Strain/Indicator: V-79/6-THIOGUANINE, Metabolic Activation: RAT, LIVER, S-9, PHENOBARBITAL AND BETA-NAPHTHOFLAVONE, Method: SUSPENSION/PLATE): inactive; negative
mutagenic call (Test System: E. COLI, Strain/Indicator: WP2 UVRA, Metabolic Activation: HAMSTER, LIVER, S-9, Method: STANDARD PLATE): inactive; negative
mutagenic call (Test System: E. COLI, Strain/Indicator: WP2 UVRA, Metabolic Activation: MOUSE, LIVER, S-9, Method: STANDARD PLATE): inactive; negative
mutagenic call (Test System: E. COLI, Strain/Indicator: WP2 UVRA, Metabolic Activation: NONE, Method: STANDARD PLATE): inactive; negative
mutagenic call (Test System: E. COLI, Strain/Indicator: WP2 UVRA, Metabolic Activation: RAT, LIVER, S-9, AROCLOR 1254, Method: STANDARD PLATE): inactive; negative
mutagenic call (Test System: E. COLI, Strain/Indicator: WP2 UVRA, Metabolic Activation: RAT, LIVER, S-9, Method: STANDARD PLATE): inactive; negative
mutagenic call (Test System: MOUSE LYMPHOMA, Strain/Indicator: L5178Y (TK+/TK-), Metabolic Activation: NONE, Method: SUSPENSION/PLATE): active; positive
mutagenic call (Test System: MOUSE LYMPHOMA, Strain/Indicator: L5178Y (TK+/TK-), Metabolic Activation: RAT, LIVER, S-9, AROCLOR 1254, Method: SUSPENSION/PLATE): active; positive
mutagenic call (Test System: MOUSE LYMPHOMA, Strain/Indicator: L5178Y (TK+/TK-), Metabolic Activation: RAT, LIVER, S-9, Method: SUSPENSION/PLATE): active; positive
mutagenic call (Test System: UDS GUINEA PIG HEPATOCYTES, Strain/Indicator: THY INCORP, Metabolic Activation: NONE, Method: AUTORADIOGRAPHY): active; positive
mutagenic call (Test System: UDS GUINEA PIG HEPATOCYTES, Strain/Indicator: THY INCORP, Metabolic Activation: NONE, Method: LIQUID SCINTILLATION COUNTING): active; positive
mutagenic call (Test System: UDS HAMSTER HEPATOCYTES, Strain/Indicator: THY INCORP, Metabolic Activation: NONE, Method: LIQUID SCINTILLATION COUNTING): active; positive
mutagenic call (Test System: UDS HUMAN FIBROBLASTS, Strain/Indicator: THY INCORP (NON-S-PHASE), Metabolic Activation: NONE, Method: AUTORADIOGRAPHY): active; positive
mutagenic call (Test System: UDS HUMAN HEPATOCYTES, Strain/Indicator: THY INCORP, Metabolic Activation: NONE, Method: AUTORADIOGRAPHY): active; positive
mutagenic call (Test System: UDS MONKEY HEPATOCYTES, Strain/Indicator: THY INCORP, Metabolic Activation: NONE, Method: AUTORADIOGRAPHY): inactive; negative
mutagenic call (Test System: UDS MOUSE HEPATOCYTES, Strain/Indicator: THY INCORP, Metabolic Activation: NONE, Method: LIQUID SCINTILLATION COUNTING): inactive; negative
mutagenic call (Test System: UDS RAT HEPATOCYTES, Strain/Indicator: BROMODEOXYURIDINE INCORP, Metabolic Activation: NONE, Method: FLOW CYTOMETRIC ANALYSIS): active; positive
mutagenic call (Test System: UDS RAT HEPATOCYTES, Strain/Indicator: THY INCORP, Metabolic Activation: AROCLOR 1254, Method: AUTORADIOGRAPHY): active; positive
mutagenic call (Test System: UDS RAT HEPATOCYTES, Strain/Indicator: THY INCORP, Metabolic Activation: NONE, Method: AUTORADIOGRAPHY): active; positive
mutagenic call (Test System: UDS RAT HEPATOCYTES, Strain/Indicator: THY INCORP, Metabolic Activation: NONE, Method: AUTORADIOGRAPHY (SERUM-FREE MEDIA)): active; positive
mutagenic call (Test System: UDS RAT HEPATOCYTES, Strain/Indicator: THY INCORP, Metabolic Activation: NONE, Method: IN VIVO): active; positive
mutagenic call (Test System: UDS RAT HEPATOCYTES, Strain/Indicator: THY INCORP, Metabolic Activation: NONE, Method: LIQUID SCINTILLATION): active; positive
mutagenic call (Test System: UDS RAT HEPATOCYTES, Strain/Indicator: THY INCORP, Metabolic Activation: NONE, Method: LIQUID SCINTILLATION COUNTING): active; positive
mutagenic call (Test System: UDS RODENT HEPATOCYTES, Strain/Indicator: THY INCORP (NON-S-PHASE), Metabolic Activation: NONE, Method: AUTORADIOGRAPHY): active; positive
mutagenic call (Test System: UDS RODENT HEPATOCYTES, Strain/Indicator: THY INCORP (NON-S-PHASE), Method: AUTORADIOGRAPHY): active; positive
mutagenic call (Test System: UDS RODENT HEPATOCYTES, Strain/Indicator: THY INCORP (NON-S-PHASE), Method: LIQUID SCINTILLATION COUNTING): active; positive
mutagenic call (Test System: UDS, Strain/Indicator: HEPG2/THYMIDINE INCORPORATION, Metabolic Activation: NONE, Method: AUTORADIOGRAPHY): active; positive
